Measured values: PMC9612231, “Antileishmanial Anthracene Endoperoxides: Efficacy In Vitro, Mechanisms and Structure-Activity Relationships” (Molecules, 2022)
Where two headings read alike, the source gives them in different places.

Key:
[1] = Formation of the xylenol orange/Fe3+ complex by EP; conditions: AcEP and 250 µM FeSO4 in methanol/H2O (9:1); for XO/Fe^3+ Formation Rate: mean ± SD of 3 experiments
Source text: In subsequent experiments, we explored the activation of EP and possible cellular consequences of these compounds in Leishmania. In a chemical system, we tested how fast EP react with iron (II) and, therefore, lead to the activation of these compounds. Resulting iron (III) was detected as complex with xylenol orange (XO, Figure 3). The reaction rate of the EP stretched across two magnitudes of orders (Table 3). On the first view, there is no direct link between the activation rates and the efficiency of the compounds against Leishmania.
XO (125 µM) and butylated hydroxytoluene (4 mM) were dissolved in MeOH/H2O (9:1). FeSO4 (25 mM) in 2.5 M H2SO4 was prepared immediately before use (final concentration of 250 µM FeSO4 in the color reagent). An aliquot of 100 µL EP solution (final concentration of 100 µM) was transferred into a disposable cuvette (BRAND, Wertheim, Germany), and 1 mL of the color reagent was added. The EP that reacted slower were incubated for 0, 30, 60, and 90 min at 25 °C. The EP that reacted faster were measured every 5 s over 5 min. At these time points, the OD difference of the sample at 560 nm and 650 nm was determined using a MS1501 UV–VIS diode array spectrophotometer (Shimadzu, Kyoto, Japan). As reference, a mixture of MeOH/H2O (9:1) was used. The slope of the reaction rate was calculated using an extinction coefficient of 1.5 × 10^4 M^−1 cm^−1.

[2] = system: Leishmania tarentolae promastigotes (LtP); assay: Resazurin viability assay for LtP; format: cell-based; conditions: for IC50: Leishmania tarentolae, read-out: LtP IC50; for Selectivity IC50,J774/IC50,LtP: ratio of IC50 in J774 macrophages to IC50 in LtP; for IC50,non-EP/IC50,EP: ratio of IC50 of non-EP in LtP versus IC50 of respective EP
Experimental: (§1) The influence of AcEP and their analogs (Ac) on the viability of cells was tested in Leishmania tarentolae promastigotes (LtP) and J774 macrophages (Table 2). Based on the changes of viability of the respective cell lines at different compound concentrations, IC50 values were calculated. In Table 2, the IC50 values in both cell lines were compared for the individual compounds. From the ratio of IC50 values in J774 macrophages to IC50 values in LtP, an in vitro selectivity was calculated.
LtP (strain P10 from Jena Bioscience, Jena, Germany) were cultivated according to manufacturer instructions up to passage 50 in brain heart infusion medium (37 g/L, pH 7.4) and supplemented with 5 mg/L hemin and 25,000 IU/L penicillin and 25 mg/L streptomycin in 50 mL TubeSpin bioreactors (TPP, Trasadingen. Switzerland). LtP were grown at 27 °C in an incubator (Ehret, Emmendingen, Germany) and agitated at a frequency of 0.05 s^−1. […] For experiments, LtP were used one day after passage. The cell number was calculated by measuring the optical density (OD) of the culture at 600 nm with a U-1100 photometer (Hitachi Ltd., Tokyo, Japan) and applying the formula × 10^6 cells/mL = OD600nm × 0.969 × 124 × dilution factor [53].
Assay medium of YEM (20.7 g/L yeast extract powder, 1.2 g/L K2HPO4, 0.2 g/L KH2PO4, 2.9 g/L glucose, pH 7.4) and PBS (1:1, v/v), 25,000 U/L penicillin, 25 mg/L streptomycin, and 7.7 µM hemin was prepared. Aliquots of 200 µL of this medium and 2 × 10^6 LtP/mL (where required) were distributed in non-treated cell culture 96-well plates. Compounds (dissolved in DMSO) were added with starting concentrations of 25 µM (Pen) or 200 µM (AcEP/Ac), and then, serial dilutions were carried out resulting in a set of concentrations (25, 5, 1, 0.2, 0.04, and 0.008 µM) or (200, 40, 8, 1.6, 0.32, and 0.064 µM). For each compound concentration, at least triplicates on each plate were performed. After incubation of the plates at 27 °C for 48 h, 50 µL of resazurin solution (final concentration in wells 20 µM) was added to each well and after 4 h of incubation, the fluorescence was measured at 560 nm excitation and 590 nm emission using a plate reader (Perkin Elmer EnSpire, Rodgau, Germany) (adapted from). Combination assays for viability in the presence of PIH and NAC were performed the same way. […] All tests were repeated at least on four different weeks of cultivation.
(§2) Calculations were carried out using Microsoft Excel 2016 (Microsoft). The graphs were created using Origin 6.1 (OriginLab Corporation, Northampton, MA, USA). For all groups of experimental data, mean and standard deviation (SD) were calculated. Statistically significant differences between groups of sample data were identified by unpaired two-tailed Student’s t-test. Differences on the level of p < 0.05 were considered significant. The number of replicates is indicated at the respective figures/tables. The half-maximal inhibitory concentrations (IC50) were determined from non-linear concentration-response curves using a four-parameter logistic model and expressed as the mean ± SD.

J774 macrophages = assay: Resazurin viability assay for J774 macrophages; format: cell-based, murine; conditions: read-out: J774 IC50
Experimental: as §1
The murine macrophage cell line J774A.1 (ATCC, TIB-67™, Wesel, Germany) was cultivated up to passage 30 in DMEM (high glucose, 3.7 g/L NaHCO3, pH 7.4) with 25,000 IU/L penicillin, 25 mg/L streptomycin, and 10% FCS (heat-inactivated) in 50 mL TubeSpin bioreactors. J774 cells were incubated at 37 °C and 5% CO2 on a roller culture apparatus (5 rpm) in a Heraeus Cytoperm 8080 incubator (Thermo Electron Corp., Vienna, Austria). To determine the cell count, the cell suspension was re-suspended and diluted 1:2 with phosphate-buffered saline (PBS): 137 mM NaCl, 1.4 mM KH2PO4, 4.3 mM Na2HPO4, and 2.7 mM KCl, pH 7.4. After fixation of the cells by mixing the cell suspension 1:1 with a formaldehyde solution (2%, v/v), aliquots of the resulting suspension were transferred into a standard Neubauer chamber (VWR, Austria) and counted manually using a light microscope (Motic BA310, Vienna, Austria) at a magnification of 40 times. J774 cells were passaged twice a week in a ratio of 1:10.
DMEM containing 25,000 U/L penicillin, 25 mg/L streptomycin, 10% FCS, and 1 × 10^5 J774/mL was prepared. This mixture (200 µL) was distributed in cell culture-treated 96-well plates, except the control wells which contained only DMEM. The cells were incubated for 24 h at 37 °C and 5% CO2 to allow attachment. Afterwards the medium and non-adherent cells were removed by washing with PBS, and then, 200 µL DMEM was added to attached cells. Compounds dissolved in DMSO were added in starting concentrations of 25 µM (Pen) or 200 µM (AcEP/Ac), and then, serial dilutions were carried out resulting in the same concentration steps as listed for LtP. For each compound concentration triplicates on each plate were performed. […], 50 µL of resazurin solution (final concentration 20 µM) was added, and after 4 h of incubation, the fluorescence was measured at 560 nm excitation and 590 nm emission using a plate reader (Perkin Elmer EnSpire, Rodgau, Germany). All tests were repeated at least on four different weeks of cultivation.
as §2

LtP = assay: Superoxide radical formation in LtP by the EPR/CMH method; format: cell-based, Leishmania tarentolae; conditions: antimycin A 20 µM, 20 min at 25 °C
Source text: Since mitochondrial inhibition can be triggered by secondary damage in the respective cells, for example, by superoxide radicals, we studied the formation of superoxide radicals in LtP by the EPR/hydroxyl-3-methoxycarbonyl-2,2,5,5-tetramethylpyrrolidine hydrochloride (CMH) method (Figure 10). […] In the presence of antimycin A (AA, an inhibitor of mitochondrial complex III), the superoxide radical formation in LtP is increased by more than 150% (Figure 11).
An aliquot of the LtP cell culture equivalent to 5 × 10^8 LtP was transferred into a 1.5 mL Eppendorf tube and was centrifuged (Hettich Universal 16, 20 °C, 2000× g, 10 min). After removal of the supernatant, the cell pellet was re-suspended in 1 mL PBS and centrifuged again and the supernatant discarded. The cell pellet was re-suspended in 1 mL of PBS with 15 mM glucose (PBS-gluc), giving a final cell density of 5 × 10^8 LtP/mL. AcEP/Ac compounds were added (100 µM final concentration) to aliquots of 50 µL of this cell suspension in 1.5 mL Eppendorf tubes and incubated for 20 min at 25 °C. Then, DFO (100 μM final concentration), DTPA (25 μM final concentration), and detection agent CMH (400 µM final concentration) were added to the aliquots before measurement. Samples containing only buffer (PBS-gluc) or only LtP (in PBS-gluc) were used as negative controls, while samples containing 20 μM AA were used as positive control. An aliquot of 17 µL suspension was aspirated into a PTFE tube (ø 0.7 mm). The tube was folded into a quartz tube (ø 4 mm outer diameter) and then transferred to the MD5 resonator of the EPR spectrometer. The measurement was started using following parameters: microwave frequency 9.682 GHz; microwave power 20 mW, modulation frequency 100 kHz; modulation amplitude 1 G; time constant 0.82 s; center field 3448 G; sweep width 100 G; scan time 84 s; attenuation 70 dB; separate scans 5. Based on a calibration curve with carboxy proxyl (CP^●) changes of the peak-to-peak intensity of CM^● spectra were converted to CMH oxidation rates (superoxide radical generation).

[3] = resazurin viability, endpoint 48 h, 2 × 10^6 LtP/mL, mean ± SD of 4–8 experiments
[4] = Mus musculus, J774, 48 h, resazurin viability, endpoint 48 h, 10^5 J774 cells/mL, mean ± SD of 4–8 experiments

Row | SMILES | Log10 (Formation Rate) [1] | XO/Fe^3+ Formation Rate [1] | IC50 [2, 3] | Selectivity IC50,J774/IC50,LtP [2] | IC50 (J774 macrophages; [4]) | also measured
1 | c1ccc2c(c1)C1OOC2c2ccccc21 [AcEP] | 3.90 | 8110 ± 4197 nmol/min | 19.7 ± 14.1 µM | 0.06 | 1.21 ± 0.32 µM | IC50,non-EP/IC50,EP [2]: >10.1
2 | CC(=O)OCC1OC(OC23OOC(OC4OC(COC(C)=O)C(OC(C)=O)C(OC(C)=O)C4OC(C)=O)(c4ccccc42)c2ccccc23)C(OC(C)=O)C(OC(C)=O)C1OC(C)=O (stereo not drawn) [BisGluAcEP] | 3.83 | 6800 ± 326 nmol/min | > 200 µM |  | > 200 µM | 
3 | CC(=O)OCC1OC(Oc2c3ccccc3c(OC3OC(COC(C)=O)C(OC(C)=O)C(OC(C)=O)C3OC(C)=O)c3ccccc23)C(OC(C)=O)C(OC(C)=O)C1OC(C)=O (stereo not drawn) [BisGluAc] |  |  | > 200 µM |  | > 200 µM | 
4 | c1ccc(-c2c3ccccc3c(-c3ccccc3)c3ccccc23)cc1 [DPAc] |  |  | 197 ± 92 µM | 0.7 | 136 ± 35 µM | Activity against LtP, in words ([2]; viability assay): rather inactive
5 | CC(=O)OCC1OC(C23C=C(C(C)(C)C)C(C4OC(COC(C)=O)C(OC(C)=O)C(OC(C)=O)C4OC(C)=O)(OO2)c2ccccc23)C(OC(C)=O)C(OC(C)=O)C1OC(C)=O (stereo not drawn) [MB359EP] | 4.26 | 18,533 ± 1147 nmol/min | > 200 µM |  | > 200 µM | 
6 | CC(=O)OCC1OC(OC23OOC(c4ccccc42)c2ccccc23)C(OC(C)=O)C(OC(C)=O)C1OC(C)=O (stereo not drawn) [MonoGluAcEP] | 4.10 | 12,697 ± 1500 nmol/min | 32.3 ± 23.4 µM | 4.7 | 153 ± 82.1 µM | IC50,non-EP/IC50,EP [2]: 4.89
7 | CC(=O)OCC1OC(Oc2c3ccccc3cc3ccccc23)C(OC(C)=O)C(OC(C)=O)C1OC(C)=O (stereo not drawn) [MonoGluAc] |  |  | 158 ± 45.1 µM | 0.6 | 101 ± 7.8 µM | 
8 | N=C(N)c1ccc(OCCCCCOc2ccc(C(=N)N)cc2)cc1 [Pen, pentamidine, reference compound] |  |  | 0.52 ± 0.16 µM |  | ~12 µM | LtP IC50 [2, 3]: submicromolar; IC50 (J774 macrophages; resazurin viability, endpoint 48 h, 10^5 J774 cells/mL, mean ± SD of 4–8 experiments): 12.3 ± 3.96 µM
9 | CCCCCC[C@H]1C(=O)O[C@H](C)[C@H](NC(=O)c2cccc(NC=O)c2O)C(=O)O[C@@H](C)[C@@H]1OC(=O)CC(C)C [antimycin A, reference compound] |  |  |  |  |  | Increase of superoxide radical formation in LtP (LtP): more than 150%
10 | c1cncc(C23OOC(c4cccnc4)(c4ccccc42)c2ccccc23)c1 [mPyAcEP] | 2.85 | 708 ± 37 nmol/min | > 200 µM |  | > 200 µM | IC50,non-EP/IC50,EP [2]: <0.26
11 | c1cncc(-c2c3ccccc3c(-c3cccnc3)c3ccccc23)c1 [mPyAc] |  |  | 52.5 ± 3.3 µM | 1.2 | 63.7 ± 7.6 µM | 
12 | COc1ccccc1-c1c2ccccc2c(-c2ccccc2OC)c2ccccc12 [oOMeAc] |  |  | 73.3 ± 25.2 µM | >2.7 | > 200 µM | 
13 | c1ccc(-c2c3ccccc3c(-c3ccccn3)c3ccccc23)nc1 [oPyAc] |  |  | 34.5 ± 12.8 µM | 2.0 | 70 ± 10.5 µM | 
14 | CC(C)(C)c1ccc2c(-c3ccccn3)c3ccccc3c(-c3ccccn3)c2c1 [pPyBuAc] |  |  |  | 57 |  | IC50 ([2]; 48 h): 1.86 ± 1.1 µM; IC50 (J774 macrophages; Mus musculus, J774, 48 h): 107 ± 46 µM
